Consider one compound from ChEMBL document CHEMBL3259601, “Synthesis of novel 1,2,3-triazole substituted-N-alkyl/aryl nitrone derivatives, their anti-inflammatory and anticancer activity” (Eur J Med Chem, 2014).

pIC50: −log10 of the molar value.

In test [1] the test system is PC-3. As to the kind of experiment: Cytotoxicity against human PC3 cells assessed as growth inhibition after 24 hrs by MTT assay. As to conditions: PC-3, 24 h. Type of test: functional, cell-based. For orientation: Tetrazolium assays rely on reduction of a dye to a coloured formazan, in cell work by metabolically active cells.
Test [2] concerns PC-3. Nature of the test: Induction of apoptosis in human PC3 cells assessed as activation of caspase-3 using AFC conjugated Ac-DEVD as substrate measured per mg of protein at 1 uM after 12 hrs by fluorescence assay (reference value: 1055.6 +/- 108.2 FU/min). It counts as functional.
The test system of test [3] is PC-3. As to the kind of experiment: Induction of apoptosis in human PC3 cells assessed as activation of caspase-3 using AFC conjugated Ac-DEVD as substrate measured per mg of protein at 2 uM after 12 hrs by fluorescence assay (reference value: 1055.6 +/- 108.2 FU/min). Type of test: functional.
The subject of test [4] is PC-3. As to the kind of experiment: Induction of apoptosis in human PC3 cells assessed as activation of caspase-3 using AFC conjugated Ac-DEVD as substrate measured per mg of protein at 1 uM after 24 hrs by fluorescence assay (reference value: 2115.3 +/- 83.2 FU/min). Type of test: functional.
Test [5] deals with PC-3. As to the kind of experiment: Induction of apoptosis in human PC3 cells assessed as activation of caspase-3 using AFC conjugated Ac-DEVD as substrate measured per mg of protein measured per mg of protein at 2 uM after 24 hrs by fluorescence assay (reference value: 2115.3 +/- 83.2 FU/min). It counts as functional.
Test [6] has as its system PC-3. Nature of the test: Induction of apoptosis in human PC3 cells assessed as activation of caspase-3 using AFC conjugated Ac-DEVD as substrate measured per mg of protein at 1 uM after 36 hrs by fluorescence assay (reference value: 2192.3 +/- 115.9 FU/min). Type of test: functional.
Test [7] relates to PC-3. As to the kind of experiment: Induction of apoptosis in human PC3 cells assessed as activation of caspase-3 using AFC conjugated Ac-DEVD as substrate measured per mg of protein at 2 uM after 36 hrs by fluorescence assay (reference value: 2192.3 +/- 115.9 FU/min). It counts as functional.
Test [8] concerns PC-3. Nature of the test: Induction of apoptosis in human PC3 cells assessed as activation of caspase-3 using AFC conjugated Ac-DEVD as substrate measured per mg of protein at 1 uM after 48 hrs by fluorescence assay (reference value: 2642.4 +/- 37.5 FU/min). Type of test: functional.
Test [9] deals with PC-3. As to the kind of experiment: Induction of apoptosis in human PC3 cells assessed as activation of caspase-3 using AFC conjugated Ac-DEVD as substrate measured per mg of protein at 2 uM after 48 hrs by fluorescence assay (reference value: 2642.4 +/- 37.5 FU/min). It counts as functional.

In general, pIC50 refers to the negative decadic logarithm of the IC50, by convention in mol/L. With `COc1cccc2c1C(=O)c1c(O)c3c(c(O)c1C2=O)C[C@@](O)(C(=O)CO)C[C@@H]3O[C@H]1C[C@H](N)[C@H](O)[C@H](C)O1` [DOXORUBICIN], the negative-log IC50 (pIC50) with PC-3 [1] is 6.22. In addition, the Activity in the test with PC-3 [2] came out at 3033.7 FU/min; in the test with PC-3 [3] it was 3331.1 FU/min; in the test on PC-3 [4], 3791.8 FU/min; with PC-3 [5] it was 4007.5 FU/min; in the test with PC-3 [6] it was 4794.2 FU/min; in the test with PC-3 [7], 4994.1 FU/min. The Activity is 6690.3 FU/min in the test on PC-3 [8] and 7240.4 FU/min with PC-3 [9].
